From PubChem BioAssay (NCI)
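Test compounds were applied to cells in 96-well plates for 48 hours at 5 doses. TGI: total growth inhibition.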

What was measured:
Test in all cases: growth of human tumour cells (NCI), 48 h
[1] = system: RPMI-8226 leukemia
[2] = system: HS 578T breast
[3] = system: SR leukemia
[4] = system: NCI-H226 lung
[5] = system: OVCAR-5 ovarian
[6] = system: TK-10 renal
[7] = system: MOLT-4 leukemia
[8] = system: T-47D breast
[9] = system: SK-MEL-28 melanoma
[10] = system: K-562 leukemia
[11] = system: MALME-3M melanoma
[12] = system: SK-OV-3 ovarian
[13] = system: NCI/ADR-RES ovarian
[14] = system: HL-60(TB) leukemia
[15] = system: SF-295 CNS
[16] = system: SW-620 colon
[17] = system: OVCAR-3 ovarian
[18] = system: HCT-15 colon
[19] = system: KM12 colon
[20] = system: MDA-N
[21] = system: SN12C renal
[22] = system: EKVX NSCLC
[23] = system: MDA-MB-435
[24] = system: MDA-MB-231 breast
[25] = system: NCI-H23 lung
[26] = system: HCC-2998 colon
[27] = system: PC-3 prostate
[28] = system: SNB-75 CNS
[29] = system: HT29 colon
[30] = system: UO-31 renal
[31] = system: OVCAR-8 ovarian
[32] = system: HOP-92 NSCLC
[33] = system: SK-MEL-5 melanoma
[34] = system: ACHN renal
[35] = system: 786-0 renal
[36] = system: A549 NSCLC
[37] = system: M14 melanoma
[38] = system: SF-539 CNS
[39] = system: SNB-19 CNS
[40] = system: HOP-62 NSCLC
[41] = system: MCF7 breast
[42] = system: A498 renal
[43] = system: U251 CNS
[44] = system: UACC-62 melanoma
[45] = system: UACC-257 melanoma
[46] = system: LOX IMVI melanoma
[47] = system: COLO 205 colon
[48] = system: DU-145 prostate
[49] = system: CCRF-CEM leukemia
[50] = system: NCI-H460 lung
[51] = system: SF-268 CNS
[52] = system: OVCAR-4 ovarian
[53] = system: SK-MEL-2 melanoma
[54] = system: BT-549 breast
[55] = system: IGROV1 ovarian
[56] = system: HCT-116 colon
[57] = system: CAKI-1 renal
[58] = system: RXF 393 renal
[59] = system: NCI-H522 lung

## O=c1ssc(=Nc2ccccc2)n1-c1ccccc1
[1]
  TGI: 57.5 µM
[2]
  TGI: 98.7 µM
[3]
  TGI: 40.9 µM
[4]
  TGI: 46.5 µM
[5]
  TGI: > 100 µM
[6]
  TGI: > 100 µM
[7]
  TGI: > 100 µM
[8]
  TGI: 39.1 µM
[9]
  TGI: > 100 µM
[10]
  TGI: 70.2 µM
[11]
  TGI: > 100 µM
[12]
  TGI: > 100 µM
[13]
  TGI: 68.2 µM
[14]
  TGI: 96.2 µM
[15]
  TGI: > 100 µM
[16]
  TGI: 51.8 µM
[17]
  TGI: 53.1 µM
[18]
  TGI: 35 µM
[19]
  TGI: > 100 µM
[20]
  TGI: > 100 µM
[21]
  TGI: 41.1 µM
[22]
  TGI: > 100 µM
[23]
  TGI: > 100 µM
[24]
  TGI: 60.5 µM
[25]
  TGI: 50.2 µM
[26]
  TGI: > 100 µM
[27]
  TGI: 38.5 µM
[28]
  TGI: > 100 µM
[29]
  TGI: > 100 µM
[30]
  TGI: 31.7 µM
[31]
  TGI: 32.7 µM
[32]
  TGI: 98.5 µM
[33]
  TGI: > 100 µM
[34]
  TGI: 31.1 µM
[35]
  TGI: 34.6 µM
[36]
  TGI: > 100 µM
[37]
  TGI: 48.3 µM
[38]
  TGI: > 100 µM
[39]
  TGI: > 100 µM
[40]
  TGI: 46.5 µM
[41]
  TGI: 35.7 µM
[42]
  TGI: > 100 µM
[43]
  TGI: 50 µM
[44]
  TGI: > 100 µM
[45]
  TGI: 38.9 µM
[46]
  TGI: 50.6 µM
[47]
  TGI: 66.4 µM
[48]
  TGI: 39.9 µM
[49]
  TGI: > 100 µM
[50]
  TGI: > 100 µM
[51]
  TGI: 37.1 µM
[52]
  TGI: 33.2 µM
[53]
  TGI: 53.9 µM

## CC1=NNC(=O)C1C1CC(c2c[nH]c3ccccc23)=NNC1=O (configuration not stated)
[1]
  TGI: > 100 µM
[2]
  TGI: > 100 µM
[4]
  TGI: > 100 µM
[5]
  TGI: > 100 µM
[6]
  TGI: > 100 µM
[7]
  TGI: > 100 µM
[8]
  TGI: > 100 µM
[9]
  TGI: > 100 µM
[54]
  TGI: > 100 µM
[55]
  TGI: > 100 µM
[10]
  TGI: > 100 µM
[11]
  TGI: > 100 µM
[12]
  TGI: > 100 µM
[13]
  TGI: > 100 µM
[56]
  TGI: > 100 µM
[14]
  TGI: > 100 µM
[15]
  TGI: > 100 µM
[16]
  TGI: > 100 µM
[17]
  TGI: > 100 µM
[18]
  TGI: > 100 µM
[19]
  TGI: > 100 µM
[20]
  TGI: > 100 µM
[21]
  TGI: > 100 µM
[22]
  TGI: > 100 µM
[23]
  TGI: > 100 µM
[24]
  TGI: > 100 µM
[25]
  TGI: > 100 µM
[27]
  TGI: > 100 µM
[28]
  TGI: > 100 µM
[29]
  TGI: > 100 µM
[30]
  TGI: > 100 µM
[31]
  TGI: > 100 µM
[32]
  TGI: > 100 µM
[33]
  TGI: > 100 µM
[34]
  TGI: > 100 µM
[57]
  TGI: > 100 µM
[35]
  TGI: > 100 µM
[36]
  TGI: > 100 µM
[37]
  TGI: > 100 µM
[38]
  TGI: > 100 µM
[39]
  TGI: > 100 µM
[40]
  TGI: > 100 µM
[42]
  TGI: > 100 µM
[43]
  TGI: > 100 µM
[44]
  TGI: > 100 µM
[45]
  TGI: > 100 µM
[58]
  TGI: > 100 µM
[47]
  TGI: > 100 µM
[48]
  TGI: > 100 µM
[49]
  TGI: > 100 µM
[59]
  TGI: > 100 µM
[50]
  TGI: > 100 µM
[51]
  TGI: > 100 µM
[53]
  TGI: > 100 µM
